The text below walks through data of PubChem BioAssay (NCI).

Among the test systems are SW-620 colon; PC-3 prostate; OVCAR-3 ovarian; SN12C renal; MDA-MB-435; HCT-116 colon; DU-145 prostate; UACC-62 melanoma; KM12 colon; MOLT-4 leukemia.
Test in all cases: inhibition of tumour cell growth, NCI panel, 48 h

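Cultured in 96-well plates, cells were exposed to test compound for 48 hours across five concentrations. Abbreviation: GI50, concentration required for 50% inhibition of growth. TGI: total growth inhibition.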

As to `COC(=O)N[C@H]1CCc2c(Br)c(OC)c(OC)c(OC)c2-c2ccc(SC)c(=O)cc21`, the GI50 in the assay on SW-620 colon, in the assay on PC-3 prostate, with OVCAR-3 ovarian, with SN12C renal, in the assay with MDA-MB-435 and with HCT-116 colon was under 0.01 µM throughout. For the same compound, the GI50 with DU-145 prostate, with UACC-62 melanoma, in the assay with KM12 colon and in the assay on MOLT-4 leukemia was under 0.01 µM throughout. Besides, the TGI in the assay with SW-620 colon was 19.7 µM; in the assay with PC-3 prostate, 32.6 µM; with OVCAR-3 ovarian, under 0.01 µM; with SN12C renal, 25.5 µM; with MDA-MB-435, under 0.01 µM; in the assay with HCT-116 colon, 11.5 µM. Besides, the TGI in the assay with DU-145 prostate came to 0.145 µM; with UACC-62 melanoma, 18 µM; in the assay on KM12 colon it was 10.6 µM; in the assay on MOLT-4 leukemia it was 21.7 µM.

As for `O=C(CN1CCN(c2ncccn2)CC1)Nc1ccc(Cl)cc1C(=O)c1ccccc1Cl`, the GI50 in the assay on SW-620 colon was over 100 µM; in the assay with PC-3 prostate, 9.47 µM; in the assay with OVCAR-3 ovarian, over 100 µM; in the assay with SN12C renal, over 100 µM; with MDA-MB-435, over 100 µM; in the assay with HCT-116 colon it was 78.7 µM. Further, the GI50 in the assay on DU-145 prostate is over 100 µM; in the assay on UACC-62 melanoma it was 92.8 µM; in the assay with KM12 colon, 69 µM; in the assay with MOLT-4 leukemia it was 21.9 µM. The TGI with SW-620 colon, in the assay with PC-3 prostate, in the assay on OVCAR-3 ovarian, with SN12C renal, with MDA-MB-435 and in the assay with HCT-116 colon was over 100 µM each time. The TGI with DU-145 prostate, in the assay with UACC-62 melanoma, in the assay with KM12 colon and in the assay with MOLT-4 leukemia was over 100 µM in each case.

For the compound `N=C1C(c2nc(-c3ccc(Br)cc3)cs2)=C(O)CN1Cc1cccnc1`, the GI50 in the assay on SW-620 colon was 4.75 µM; in the assay with PC-3 prostate, 44.3 µM; in the assay on OVCAR-3 ovarian, 14 µM; in the assay on SN12C renal, 26.8 µM; in the assay with MDA-MB-435, 15.5 µM; in the assay on HCT-116 colon it was 1.75 µM. For the same compound, the GI50 in the assay with DU-145 prostate is 17.4 µM; with UACC-62 melanoma, 6.92 µM; in the assay on KM12 colon, 18.9 µM; with MOLT-4 leukemia, 4.39 µM. For the same compound, the TGI in the assay with SW-620 colon is 26.7 µM; in the assay with PC-3 prostate, over 100 µM; with OVCAR-3 ovarian, 42 µM; with SN12C renal it was over 100 µM; with MDA-MB-435 it was over 100 µM; in the assay with HCT-116 colon it was 24 µM. In addition, the TGI in the assay on DU-145 prostate is 63.1 µM; in the assay with UACC-62 melanoma it was 30.6 µM; with KM12 colon, over 100 µM; in the assay with MOLT-4 leukemia, 42.7 µM.
